Experiments:
Substance-K receptor = target: T1, Substance-K receptor (Homo sapiens, UniProt P21452); format: cell membranes, CHO, Membrane; conditions: cho; also: in other assays of this panel Not Active means under 50% inhibition at 10 µM
T1 sequence (P21452 whole entry): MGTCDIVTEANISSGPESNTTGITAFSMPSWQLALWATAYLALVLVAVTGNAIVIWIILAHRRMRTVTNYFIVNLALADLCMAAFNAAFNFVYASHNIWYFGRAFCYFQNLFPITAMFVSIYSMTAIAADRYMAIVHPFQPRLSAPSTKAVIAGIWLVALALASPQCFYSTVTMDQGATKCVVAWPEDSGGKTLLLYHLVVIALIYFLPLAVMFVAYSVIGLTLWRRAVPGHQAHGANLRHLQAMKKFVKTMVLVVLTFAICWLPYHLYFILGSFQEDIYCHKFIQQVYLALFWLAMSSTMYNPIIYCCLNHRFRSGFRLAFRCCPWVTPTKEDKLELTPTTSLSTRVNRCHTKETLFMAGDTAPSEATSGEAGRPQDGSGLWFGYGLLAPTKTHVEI

[1] = target: T2, Amine oxidase [flavin-containing] A (Homo sapiens, UniProt P21397); experiment: DRUGMATRIX: Monoamine Oxidase MAO-A enzyme inhibition (substrate: Kynuramine); design: species or system BTI-TN-5B1-4; conditions: bti-tn-5b1-4; Not Active = under 50% inhibition at 10 µM
T2 sequence (P21397 whole entry): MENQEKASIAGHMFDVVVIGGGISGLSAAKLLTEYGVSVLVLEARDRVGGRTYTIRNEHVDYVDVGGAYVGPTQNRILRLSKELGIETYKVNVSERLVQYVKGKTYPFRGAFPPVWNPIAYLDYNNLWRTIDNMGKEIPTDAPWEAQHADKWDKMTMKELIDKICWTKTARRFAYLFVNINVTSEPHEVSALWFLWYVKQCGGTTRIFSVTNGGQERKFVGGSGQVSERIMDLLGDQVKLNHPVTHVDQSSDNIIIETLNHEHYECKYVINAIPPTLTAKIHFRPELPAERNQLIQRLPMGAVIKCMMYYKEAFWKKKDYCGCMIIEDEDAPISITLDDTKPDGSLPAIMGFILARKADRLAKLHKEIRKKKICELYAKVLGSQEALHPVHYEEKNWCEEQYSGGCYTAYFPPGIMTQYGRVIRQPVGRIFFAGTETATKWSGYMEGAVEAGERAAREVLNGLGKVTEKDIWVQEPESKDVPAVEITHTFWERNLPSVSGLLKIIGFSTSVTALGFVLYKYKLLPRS

Nitric oxide synthase 1 = Nitric oxide synthase 1 (Rattus norvegicus, UniProt P29476); format: tissue-based, Cerebellum; also: in other assays of this panel Not Active means under 50% inhibition at 10 µM
[2] = target: Mitogen-activated protein kinase 14 (Homo sapiens, UniProt Q16539); design: species or system Escherichia coli;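 also: inhibition of p38alpha enzyme activity in a biochemical kinase assay, with myelin basic protein serving as substrate; in other assays of this panel Not Active means under 50% inhibition at 10 µM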
Adenosine receptor A2a = Adenosine receptor A2a (Homo sapiens, UniProt P29274); experiment: DRUGMATRIX: Adenosine A2A radioligand binding (ligand: […]); format: cell membranes, HEK293, Membrane; conditions: hek293; Not Active = under 50% inhibition at 10 µM
Cytochrome P450 2D6 = Cytochrome P450 2D6 (Homo sapiens, UniProt P10635); conditions: bti-tn-5b1-4; also: in other assays of this panel Not Active means under 50% inhibition at 10 µM
Sequence of Cytochrome P450 2D6 (P10635 whole entry): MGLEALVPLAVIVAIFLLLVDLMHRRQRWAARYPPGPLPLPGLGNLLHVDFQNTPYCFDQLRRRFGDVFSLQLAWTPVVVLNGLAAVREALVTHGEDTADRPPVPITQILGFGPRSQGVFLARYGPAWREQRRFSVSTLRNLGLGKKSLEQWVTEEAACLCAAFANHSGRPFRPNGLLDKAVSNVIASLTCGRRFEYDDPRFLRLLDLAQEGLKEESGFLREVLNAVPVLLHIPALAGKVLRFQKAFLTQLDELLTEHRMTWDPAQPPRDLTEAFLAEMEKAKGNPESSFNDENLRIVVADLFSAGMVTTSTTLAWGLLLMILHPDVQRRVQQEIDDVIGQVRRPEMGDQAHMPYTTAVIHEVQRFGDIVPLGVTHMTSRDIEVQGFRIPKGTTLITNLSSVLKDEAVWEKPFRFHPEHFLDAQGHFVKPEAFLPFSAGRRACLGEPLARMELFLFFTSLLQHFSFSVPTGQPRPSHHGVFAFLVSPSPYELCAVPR

Sequence of Adenosine receptor A2a (P29274 whole entry): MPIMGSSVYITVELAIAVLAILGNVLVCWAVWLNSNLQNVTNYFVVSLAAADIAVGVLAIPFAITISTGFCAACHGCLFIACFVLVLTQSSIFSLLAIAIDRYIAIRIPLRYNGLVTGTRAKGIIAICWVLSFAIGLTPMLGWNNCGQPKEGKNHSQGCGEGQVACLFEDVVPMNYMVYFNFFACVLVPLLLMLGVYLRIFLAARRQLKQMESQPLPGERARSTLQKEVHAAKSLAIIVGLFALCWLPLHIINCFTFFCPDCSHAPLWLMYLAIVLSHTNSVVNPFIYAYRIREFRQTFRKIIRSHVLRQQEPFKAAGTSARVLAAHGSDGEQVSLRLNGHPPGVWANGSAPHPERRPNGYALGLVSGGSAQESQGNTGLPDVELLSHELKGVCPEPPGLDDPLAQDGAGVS
Sequence of Mitogen-activated protein kinase 14 (Q16539 whole entry): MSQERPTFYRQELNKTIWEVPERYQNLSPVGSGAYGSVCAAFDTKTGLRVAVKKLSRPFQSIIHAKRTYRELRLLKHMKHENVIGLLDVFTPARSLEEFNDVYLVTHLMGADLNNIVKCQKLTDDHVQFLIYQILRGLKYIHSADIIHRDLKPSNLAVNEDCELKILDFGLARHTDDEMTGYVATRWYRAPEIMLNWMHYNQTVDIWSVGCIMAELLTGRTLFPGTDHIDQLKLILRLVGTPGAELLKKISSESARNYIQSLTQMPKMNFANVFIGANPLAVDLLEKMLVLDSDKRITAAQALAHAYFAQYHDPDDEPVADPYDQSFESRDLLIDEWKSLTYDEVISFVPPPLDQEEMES
Sequence of Nitric oxide synthase 1 (P29476 whole entry): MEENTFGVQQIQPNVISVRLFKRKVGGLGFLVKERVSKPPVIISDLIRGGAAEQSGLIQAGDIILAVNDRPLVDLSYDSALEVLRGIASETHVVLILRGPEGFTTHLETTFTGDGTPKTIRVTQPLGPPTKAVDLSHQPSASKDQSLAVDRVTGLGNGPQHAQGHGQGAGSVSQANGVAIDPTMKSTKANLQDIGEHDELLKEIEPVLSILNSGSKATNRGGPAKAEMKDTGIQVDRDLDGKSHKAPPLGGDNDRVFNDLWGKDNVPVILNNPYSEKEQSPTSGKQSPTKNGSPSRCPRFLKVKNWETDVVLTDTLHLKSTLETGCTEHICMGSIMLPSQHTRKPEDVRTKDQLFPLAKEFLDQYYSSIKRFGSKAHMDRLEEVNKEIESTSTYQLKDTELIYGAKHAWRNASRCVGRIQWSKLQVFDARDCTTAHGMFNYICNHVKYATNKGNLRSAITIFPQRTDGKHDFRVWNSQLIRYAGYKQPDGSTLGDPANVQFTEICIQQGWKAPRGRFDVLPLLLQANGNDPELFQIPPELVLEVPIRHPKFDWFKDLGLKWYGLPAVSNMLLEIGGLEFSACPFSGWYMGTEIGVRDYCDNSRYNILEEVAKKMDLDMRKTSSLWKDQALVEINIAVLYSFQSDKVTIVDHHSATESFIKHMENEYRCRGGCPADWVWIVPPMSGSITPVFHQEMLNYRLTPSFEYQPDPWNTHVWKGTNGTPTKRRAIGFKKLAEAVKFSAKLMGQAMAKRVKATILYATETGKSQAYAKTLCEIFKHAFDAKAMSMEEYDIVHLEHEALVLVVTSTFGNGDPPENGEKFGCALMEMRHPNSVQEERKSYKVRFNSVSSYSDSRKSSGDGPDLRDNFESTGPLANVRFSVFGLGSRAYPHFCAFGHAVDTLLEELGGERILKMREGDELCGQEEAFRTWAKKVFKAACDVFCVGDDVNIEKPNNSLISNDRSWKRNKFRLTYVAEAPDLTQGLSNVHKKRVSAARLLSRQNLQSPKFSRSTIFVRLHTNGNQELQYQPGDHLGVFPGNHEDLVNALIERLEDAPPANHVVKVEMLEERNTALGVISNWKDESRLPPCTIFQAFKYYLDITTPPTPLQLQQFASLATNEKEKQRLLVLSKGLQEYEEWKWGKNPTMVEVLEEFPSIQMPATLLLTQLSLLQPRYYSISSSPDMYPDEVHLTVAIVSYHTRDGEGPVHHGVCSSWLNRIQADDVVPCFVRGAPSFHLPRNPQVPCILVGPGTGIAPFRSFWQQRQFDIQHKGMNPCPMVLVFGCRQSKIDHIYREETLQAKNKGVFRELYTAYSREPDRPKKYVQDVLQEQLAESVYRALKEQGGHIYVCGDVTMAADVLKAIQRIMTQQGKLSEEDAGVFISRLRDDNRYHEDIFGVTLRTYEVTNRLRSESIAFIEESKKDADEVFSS

Cc1cc(=O)n(-c2ccccc2)n1C [ANTIPYRINE]
Not Active: IC50 (Substance-K receptor) | IC50 [1] | IC50 (Nitric oxide synthase 1) | IC50 [2] | IC50 (Adenosine receptor A2a) | IC50 (Cytochrome P450 2D6) | Ki (Cytochrome P450 2D6)

CN1C(=O)COc2c(C(=O)NC3CN4CCC3CC4)cc(Cl)cc21 (centres undefined) [AZASETRON]
Not Active: IC50 (Substance-K receptor) | IC50 [1] | IC50 (Nitric oxide synthase 1) | IC50 [2] | IC50 (Adenosine receptor A2a) | IC50 (Cytochrome P450 2D6) | Ki (Cytochrome P450 2D6)

C[C@H]1C[C@H]2[C@@H]3CCC4=CC(=O)C=C[C@]4(C)[C@@]3(Cl)[C@@H](O)C[C@]2(C)[C@@]1(O)C(=O)CO [BECLOMETHASONE]
Not Active: IC50 (Substance-K receptor) | IC50 [1] | IC50 (Nitric oxide synthase 1) | IC50 [2] | IC50 (Adenosine receptor A2a) | IC50 (Cytochrome P450 2D6) | Ki (Cytochrome P450 2D6)

CCOC(=O)[C@H](CCc1ccccc1)N[C@H]1CCc2ccccc2N(CC(=O)O)C1=O [BENAZEPRIL]
Not Active: IC50 (Substance-K receptor) | IC50 [1] | IC50 (Nitric oxide synthase 1) | IC50 [2] | IC50 (Adenosine receptor A2a) | IC50 (Cytochrome P450 2D6) | Ki (Cytochrome P450 2D6)

Nc1c(CC(=O)O)cccc1C(=O)c1ccc(Br)cc1 [BROMFENAC]
Not Active: IC50 (Substance-K receptor) | IC50 [1] | IC50 (Nitric oxide synthase 1) | IC50 [2] | IC50 (Adenosine receptor A2a) | IC50 (Cytochrome P450 2D6) | Ki (Cytochrome P450 2D6)

O=C1CC2(CCCC2)CC(=O)N1CCCCN1CCN(c2ncccn2)CC1 [BUSPIRONE]
Not Active: IC50 (Substance-K receptor) | IC50 [1] | IC50 (Nitric oxide synthase 1) | IC50 [2] | IC50 (Adenosine receptor A2a) | IC50 (Cytochrome P450 2D6) | Ki (Cytochrome P450 2D6)

C[C@@]12C(=O)OC(=O)[C@]1(C)[C@H]1CC[C@@H]2O1 [CANTHARIDIN]
Not Active: IC50 (Substance-K receptor) | IC50 [1] | IC50 (Nitric oxide synthase 1) | IC50 [2] | IC50 (Adenosine receptor A2a) | IC50 (Cytochrome P450 2D6) | Ki (Cytochrome P450 2D6)

ClC(Cl)Cl [CHLOROFORM]
Not Active: IC50 (Substance-K receptor) | IC50 [1] | IC50 (Nitric oxide synthase 1) | IC50 [2] | IC50 (Adenosine receptor A2a) | IC50 (Cytochrome P450 2D6) | Ki (Cytochrome P450 2D6)

C=C1CC[C@H](O)C/C1=C/C=C1\CCC[C@]2(C)[C@@H]([C@H](C)CCCC(C)C)CC[C@@H]12 [CHOLECALCIFEROL]
Not Active: IC50 (Substance-K receptor) | IC50 [1] | IC50 (Nitric oxide synthase 1) | IC50 [2] | IC50 (Adenosine receptor A2a) | IC50 (Cytochrome P450 2D6) | Ki (Cytochrome P450 2D6)

C[N+](C)(C)CCO.[Cl-] [CHOLINE CHLORIDE]
Not Active: IC50 (Substance-K receptor) | IC50 [1] | IC50 (Nitric oxide synthase 1) | IC50 [2] | IC50 (Adenosine receptor A2a) | IC50 (Cytochrome P450 2D6) | Ki (Cytochrome P450 2D6)

CC(=O)OCC(=O)[C@@]1(O)CC[C@H]2[C@@H]3CCC4=CC(=O)CC[C@]4(C)[C@H]3C(=O)C[C@@]21C [CORTISONE ACETATE]
Not Active: IC50 (Substance-K receptor) | IC50 [1] | IC50 (Nitric oxide synthase 1) | IC50 [2] | IC50 (Adenosine receptor A2a) | IC50 (Cytochrome P450 2D6) | Ki (Cytochrome P450 2D6)

O=c1ccc2ccccc2o1 [COUMARIN]
Not Active: IC50 (Substance-K receptor) | IC50 [1] | IC50 (Nitric oxide synthase 1) | IC50 [2] | IC50 (Adenosine receptor A2a) | IC50 (Cytochrome P450 2D6) | Ki (Cytochrome P450 2D6)

CN(C)/N=N/c1[nH]cnc1C(N)=O [DACARBAZINE]
Not Active: IC50 (Substance-K receptor) | IC50 [1] | IC50 (Nitric oxide synthase 1) | IC50 [2] | IC50 (Adenosine receptor A2a) | IC50 (Cytochrome P450 2D6) | Ki (Cytochrome P450 2D6)

COc1ccc2c(c1)[C@]13CCCC[C@@H]1[C@H](C2)N(C)CC3 [DEXTROMETHORPHAN]
Not Active: IC50 (Substance-K receptor) | IC50 [1] | IC50 (Nitric oxide synthase 1) | IC50 [2] | IC50 (Adenosine receptor A2a) | IC50 (Cytochrome P450 2D6) | Ki (Cytochrome P450 2D6)

CC(=O)Nc1c(I)c(NC(C)=O)c(I)c(C(=O)O)c1I [DIATRIZOIC ACID]
Not Active: IC50 (Substance-K receptor) | IC50 [1] | IC50 (Nitric oxide synthase 1) | IC50 [2] | IC50 (Adenosine receptor A2a) | IC50 (Cytochrome P450 2D6) | Ki (Cytochrome P450 2D6)

COP(=O)(OC)OC=C(Cl)Cl [DICHLORVOS]
Not Active: IC50 (Substance-K receptor) | IC50 [1] | IC50 (Nitric oxide synthase 1) | IC50 [2] | IC50 (Adenosine receptor A2a) | IC50 (Cytochrome P450 2D6) | Ki (Cytochrome P450 2D6)

O=C(O)Cc1ccccc1Nc1c(Cl)cccc1Cl [DICLOFENAC]
Not Active: IC50 (Substance-K receptor) | IC50 [1] | IC50 (Nitric oxide synthase 1) | IC50 [2] | IC50 (Adenosine receptor A2a) | IC50 (Cytochrome P450 2D6) | Ki (Cytochrome P450 2D6)

C[C@H]1O[C@@H](O[C@H]2[C@@H](O)C[C@H](O[C@H]3[C@@H](O)C[C@H](O[C@H]4CC[C@@]5(C)[C@H](CC[C@@H]6[C@@H]5CC[C@]5(C)[C@@H](C7=CC(=O)OC7)CC[C@]65O)C4)O[C@@H]3C)O[C@@H]2C)C[C@H](O)[C@@H]1O [DIGITOXIN]
Not Active: IC50 (Substance-K receptor) | IC50 [1] | IC50 (Nitric oxide synthase 1) | IC50 [2] | IC50 (Adenosine receptor A2a) | IC50 (Cytochrome P450 2D6) | Ki (Cytochrome P450 2D6)

Cn1c(=O)c2c(ncn2CC2OCCO2)n(C)c1=O [DOXOFYLLINE]
Not Active: IC50 (Substance-K receptor) | IC50 [1] | IC50 (Nitric oxide synthase 1) | IC50 [2] | IC50 (Adenosine receptor A2a) | IC50 (Cytochrome P450 2D6) | Ki (Cytochrome P450 2D6)

COc1cccc2c1C(=O)c1c(O)c3c(c(O)c1C2=O)C[C@@](O)(C(=O)CO)C[C@@H]3O[C@H]1C[C@H](N)[C@H](O)[C@H](C)O1 [DOXORUBICIN]
Not Active: IC50 (Substance-K receptor) | IC50 [1] | IC50 (Nitric oxide synthase 1) | IC50 [2] | IC50 (Adenosine receptor A2a) | IC50 (Cytochrome P450 2D6) | Ki (Cytochrome P450 2D6)

COc1cccc2c1C(=O)c1c(O)c3c(c(O)c1C2=O)C[C@@](O)(C(=O)CO)C[C@@H]3O[C@H]1C[C@H](N)[C@@H](O)[C@H](C)O1 [EPIRUBICIN]
Not Active: IC50 (Substance-K receptor) | IC50 [1] | IC50 (Nitric oxide synthase 1) | IC50 [2] | IC50 (Adenosine receptor A2a) | IC50 (Cytochrome P450 2D6) | Ki (Cytochrome P450 2D6)

C[C@]12CC[C@@H]3c4ccc(OC(=O)c5ccccc5)cc4CC[C@H]3[C@@H]1CC[C@@H]2O [ESTRADIOL BENZOATE]
Not Active: IC50 (Substance-K receptor) | IC50 [1] | IC50 (Nitric oxide synthase 1) | IC50 [2] | IC50 (Adenosine receptor A2a) | IC50 (Cytochrome P450 2D6) | Ki (Cytochrome P450 2D6)
